Holding throughout (test): growth of human tumour cells (NCI), 48 h
Assay [1] relates to COLO 205.
Assay [2] has as its system EKVX.
The subject of assay [3] is HCT-15.
The subject of assay [4] is RPMI-8226.
For assay [5], the system named is NCI-H460.
Assay [6] relates to 786-0.
The test system of assay [7] is OVCAR-8.
Assay [8] concerns SK-MEL-5.
The test system of assay [9] is HT-29.
Assay [10] has as its system SNB-19.
Assay [11] relates to TK-10.
Assay [12] concerns OVCAR-5.
The test system of assay [13] is UACC-257.
Assay [14] deals with HCT-116.
The test system of assay [15] is SK-MEL-2.
Assay [16] relates to MDA-MB-231.
The test system of assay [17] is NCI/ADR-RES.
The test system of assay [18] is Malme-3M.
For assay [19], the system named is RXF 393.
Assay [20] relates to CCRF-CEM.

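These data come from cells grown in 96-well plates and exposed to compound for 48 hours at five concentrations. Here, GI50 denotes the concentration required for 50% inhibition of growth.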 The source made the active and inactive calls. Rule as the data show it: active = GI50 up to about 1.1 µM and inactive = higher.

On to `COC(=O)CN(CC1O[C@@H]2OC(C)(C)O[C@@H]2C1N=[N+]=[N-])C(=O)OCc1ccccc1` (some centres not stated), for which the GI50 in assay [1] was > 100 µM (inactive); in [2], > 100 µM (inactive); in [3], more than 100 µM; in [4] it was > 100 µM (inactive); in assay [5], > 100 µM (inactive); in assay [6] it was > 100 µM (inactive). Also, the GI50 in assay [7], in assay [8], in assay [9], in assay [10], in assay [11] and in [12] was > 100 µM (inactive) each time. In addition, the GI50 in assay [13] is > 100 µM (inactive); in [14], > 100 µM (inactive); in [15], > 100 µM (inactive); in assay [16], > 100 µM (inactive); in assay [17] it was 30.9 µM (inactive).
In the case of `CC(=O)Oc1ccc2c3c1O[C@H]1[C@H](O)CC[C@@]4(O)[C@@H](C2)N(C)CC[C@]314`, the GI50 in [1] is > 100 µM (inactive); in [2], > 100 µM (inactive); in [3], more than 100 µM; in [4] it was > 100 µM (inactive); in assay [6], > 100 µM (inactive); in [7], > 100 µM (inactive). In addition, the GI50 in assay [8], in assay [9], in assay [10], in [11], in assay [18] and in [12] was > 100 µM (inactive) in each case. The GI50 in assay [13], in assay [14], in assay [15], in assay [16] and in assay [17] was > 100 µM (inactive) each time.
On to `CCOC(=O)C1CCCCc2sc(N)c(C#N)c21` (configuration not stated), for which the GI50 in assay [1] is > 100 µM (inactive); in assay [2], > 100 µM (inactive); in assay [3], more than 100 µM; in [19], > 100 µM (inactive); in assay [4], > 100 µM (inactive); in assay [5], > 100 µM (inactive). The GI50 in assay [6], in [7], in [8], in assay [9], in assay [10] and in [11] was > 100 µM (inactive) in each case. The GI50 in assay [18] is 71.1 µM (inactive); in [12] it was > 100 µM (inactive); in [13], > 100 µM (inactive); in [14] it was > 100 µM (inactive); in [15], > 100 µM (inactive); in assay [16], > 100 µM (inactive).
As for `Cc1nn(C)cc1P(=S)(c1ccccc1)c1ccccc1`, the GI50 in assay [1] was 48.5 µM (inactive); in [2], > 100 µM (inactive); in assay [3], 32.4 µM; in assay [19] it was > 100 µM (inactive); in [20], 31.8 µM (inactive); in [4], 28.7 µM (inactive). The GI50 was 40.5 µM (inactive) in [5]; > 100 µM (inactive) in [6]; 54.3 µM (inactive) in assay [7]; > 100 µM (inactive) in assay [8]; 50.4 µM (inactive) in assay [9]; > 100 µM (inactive) in assay [10]. Besides, the GI50 is > 100 µM (inactive) in assay [11]; 58.6 µM (inactive) in [18]; > 100 µM (inactive) in assay [12]; 97.1 µM (inactive) in [13]; 31.8 µM (inactive) in assay [14]; > 100 µM (inactive) in assay [15].
Regarding `CCOC(=O)c1nc2ccccc2nc1Nc1ccc(Cl)c(Cl)c1`, the GI50 in assay [1] is 67.9 µM (inactive); in assay [2], 60.5 µM (inactive); in [3], more than 100 µM; in [20], > 10 µM (inactive); in assay [4], 57.7 µM (inactive); in assay [5] it was 11 µM (inactive). In addition, the GI50 was 29.2 µM (inactive) in assay [6]; 29.9 µM (inactive) in assay [7]; 21.5 µM (inactive) in assay [8]; > 100 µM (inactive) in assay [9]; 27.2 µM (inactive) in [10]; 31.4 µM (inactive) in assay [11]. The GI50 in [18] was 16.2 µM (inactive); in assay [12], > 100 µM (inactive); in [14], 29 µM (inactive); in assay [15], 89.7 µM (inactive); in assay [16], > 100 µM (inactive); in [17] it was > 100 µM (inactive).
In the case of `COc1cc(COC(=O)N2CCC2C(=O)O)c([N+](=O)[O-])cc1OC` (configuration not stated), the GI50 in assay [1] was > 100 µM (inactive); in [2], > 100 µM (inactive); in assay [3] it was more than 100 µM; in [19], > 100 µM (inactive); in assay [20], > 100 µM (inactive); in assay [4], > 100 µM (inactive). The GI50 in assay [5], in assay [6], in assay [7], in assay [8], in assay [9] and in [10] was > 100 µM (inactive) throughout. For the same compound, the GI50 in assay [11], in [18], in [12], in assay [13], in [14] and in assay [17] was > 100 µM (inactive) each time.
Consider `c1ccc2c(-c3ccnc(-c4c[nH]c5ccccc45)n3)c[nH]c2c1`, for which the GI50 was 5.45 µM (inactive) in assay [1]; 6.4 µM (inactive) in [2]; 3.19 µM in [3]; 1.51 µM (inactive) in [20]; 1.91 µM (inactive) in assay [4]; 2.87 µM (inactive) in assay [5]. Also, the GI50 in [6] is 2.12 µM (inactive); in assay [7], 5.93 µM (inactive); in assay [8] it was 3.27 µM (inactive); in assay [9], 2.7 µM (inactive); in assay [10], 4.81 µM (inactive); in [11] it was 8.67 µM (inactive). For the same compound, the GI50 in [12] is > 100 µM (inactive); in assay [13], 4.34 µM (inactive); in [14], 4.36 µM (inactive); in assay [15] it was 4.16 µM (inactive); in [16] it was 1.85 µM (inactive); in assay [17] it was 16.4 µM (inactive).
`NNC1=N/C(=C\c2ccco2)C(=O)N1`: the GI50 in [1] was > 100 µM (inactive); in [2] it was > 100 µM (inactive); in assay [3] it was 58.3 µM; in assay [20], > 10 µM (inactive); in assay [4] it was 57.3 µM (inactive); in assay [6] it was > 100 µM (inactive). Moreover, the GI50 in assay [7], in [8], in assay [9], in assay [10], in assay [11] and in [18] was > 100 µM (inactive) in each case. The GI50 in assay [12], in [13], in assay [14], in assay [15], in assay [16] and in [17] was > 100 µM (inactive) throughout.
In the case of `CC(C)OC(=O)NCCn1cc(-c2ccccc2)nn1`, the GI50 in assay [1] was > 100 µM (inactive); in [2], > 100 µM (inactive); in [3], more than 100 µM; in [20], > 100 µM (inactive); in assay [4], > 100 µM (inactive); in assay [5], > 100 µM (inactive). Also, the GI50 in [6], in assay [7], in [8], in assay [9], in assay [10] and in assay [11] was > 100 µM (inactive) in each case. For the same compound, the GI50 in assay [18], in assay [12], in assay [13], in assay [14], in assay [15] and in assay [16] was > 100 µM (inactive) each time. Besides, the GI50 in [17] was > 100 µM (inactive).
In the case of `Cc1cc(S(=O)(=O)Nc2cc(N)n[nH]2)c(SCc2nc(N)nc(N(C)C)n2)cc1Cl`, the GI50 is > 10 µM (inactive) in [1]; > 10 µM (inactive) in assay [2]; more than 10 µM in assay [3]; > 10 µM (inactive) in assay [19]; > 10 µM (inactive) in assay [20]; > 10 µM (inactive) in assay [4]. Further, the GI50 in assay [5], in assay [6], in [7], in assay [8], in [9] and in assay [10] was > 10 µM (inactive) each time. Also, the GI50 in assay [11], in [18], in [12], in assay [13], in assay [14] and in assay [15] was > 10 µM (inactive) throughout. Besides, the GI50 in [17] is > 10 µM (inactive).
Regarding `C=CCOCn1cnc2c(=O)[nH]c(N)nc21`, the GI50 in [1] is > 100 µM (inactive); in assay [2] it was > 100 µM (inactive); in assay [3] it was more than 100 µM; in [20], > 100 µM (inactive); in assay [4], > 100 µM (inactive); in [5], > 100 µM (inactive). For the same compound, the GI50 in assay [6], in assay [7], in assay [8], in assay [10], in assay [11] and in assay [18] was > 100 µM (inactive) throughout. The GI50 in assay [12], in assay [14], in assay [15], in assay [16] and in assay [17] was > 100 µM (inactive) throughout.

Source of the values: ChEMBL document CHEMBL1201862, “PubChem BioAssay data set” (2004).
